{"source": "ChEMBL document CHEMBL6182924", "about": "“Discovery of a Novel and Potent MET Transcription Inhibitor Targeting Promoter G-Quadruplex for the Treatment of NSCLC” (J Med Chem, 2025)", "key": {"NCI-H1975 [1]": {"system": "NCI-H1975", "experiment": "Induction of apoptosis in human NCI-H1975 cells assessed as viable cells at 1 uM incubated for 24 hrs by Annexin V-FITC/PI staining based flow cytometry analysis (reference value: 90.1 %)", "assay_type": "functional", "conditions": "read-out: Activity"}, "BaF3": {"system": "BaF3", "experiment": "Antiproliferative activity against mouse BaF3 cells harboring TPR-MET L1195V mutant incubated for 24 hrs by CCK-8 assay", "assay_type": "functional, cell-based", "conditions": "BaF3, 24 h"}, "[2]": {"experiment": "Toxicity in BALB/c mouse xenografted with human A549 cells assessed as body weight loss at 40 mg/kg, po administered once a day and measured after 20 days", "assay_type": "organism-based", "conditions": "in vivo, 480 h, time 20 day"}, "NCI-H1975 [3]": {"system": "NCI-H1975", "experiment": "Antiproliferative activity against human NCI-H1975 cells assessed as inhibition of cell growth incubated for 3 days by CCK-8 assay", "assay_type": "functional, cell-based", "conditions": "time 3.0 day"}, "NCI-H1975 [4]": {"system": "NCI-H1975", "experiment": "Induction of apoptosis in human NCI-H1975 cells assessed as late apoptotic cells at 2 uM incubated for 24 hrs by Annexin V-FITC/PI staining based flow cytometry analysis (reference value: 2.27 %)", "assay_type": "functional"}, "NCI-H1975 [5]": {"system": "NCI-H1975", "experiment": "Downregulation of c-Met expression in human NCI-H1975 cells incubated for 72 hrs by Western blot analysis", "assay_type": "functional, cell-based", "conditions": "dose <= 1000.0 nM"}, "[6]": {"experiment": "Toxicity in BALB/c mouse xenografted with human A549 cells assessed as body weight loss at 20 mg/kg, po administered once a day and measured after 20 days", "assay_type": "organism-based", "conditions": "in vivo, 480 h, time 20 day"}, "A549 [7]": {"system": "A549", "experiment": "Induction of cell cycle arrest in human A549 cells assessed as accumulation of cells at G2 phase at 2 uM measured for 24 hrs by PI/Rnase staining based flow cytometry (reference value: 13.4 %)", "assay_type": "functional"}, "[8]": {"experiment": "Toxicity in BALB/c mouse xenografted with human A549 cells assessed as spleen damage at 20 mg/kg, po administered once a day and measured after 40 days by H and E staining based analysis", "assay_type": "organism-based", "conditions": "in vivo, 960 h, time 40 day"}, "NCI-H1975 [9]": {"system": "NCI-H1975", "experiment": "Induction of apoptosis in human NCI-H1975 cells assessed as necrotic cells at 0.5 uM incubated for 24 hrs by Annexin V-FITC/PI staining based flow cytometry analysis (reference value: 7.33 %)", "assay_type": "functional"}, "NCI-H1975 [10]": {"system": "NCI-H1975", "experiment": "Induction of apoptosis in human NCI-H1975 cells assessed as necrotic cells at 1 uM incubated for 24 hrs by Annexin V-FITC/PI staining based flow cytometry analysis (reference value: 7.33 %)", "assay_type": "functional"}, "NCI-H1975 [11]": {"system": "NCI-H1975", "experiment": "Induction of apoptosis in human NCI-H1975 cells assessed as early apoptotic cells at 0.5 uM incubated for 24 hrs by Annexin V-FITC/PI staining based flow cytometry analysis (reference value: 0.35 %)", "assay_type": "functional"}, "Quadruplex DNA": {"biological_target": "Quadruplex DNA", "experiment": "Binding affinity to c-MET G4-quadruplex DNA (unknown origin) assessed as dissociation constant by MST assay", "assay_type": "nucleic-acid assay"}, "A549 [12]": {"system": "A549", "experiment": "Induction of apoptosis in human A549 cells assessed as early apoptotic cells at 0.5 uM incubated for 24 hrs by Annexin V-FITC/PI staining based flow cytometry analysis (reference value: 1.73 %)", "assay_type": "functional"}}, "note": "pIC50, pKd: −log10 of the molar value. Activity calls are given as the source filed them. The rule behind the calls is not given here.", "data": [{"molecule": "COc1cccc(-c2ccc(-c3nc4c5cccnc5c5ncccc5c4[nH]3)o2)c1", "values": [{"measurement": "viability at 1 µM", "setting": "NCI-H1975 [1]", "value": 83.6, "unit": "%"}, {"measurement": "pIC50", "setting": "BaF3", "value": 6.29}, {"measurement": "Activity", "setting": "[2]", "value": "Non-toxic"}, {"measurement": "Activity", "setting": "NCI-H1975 [3]", "value": "Active"}, {"measurement": "Activity", "setting": "NCI-H1975 [4]", "value": 14.2, "unit": "%"}, {"measurement": "Activity", "setting": "NCI-H1975 [5]", "value": "Dose-dependent-effect"}, {"measurement": "Activity", "setting": "[6]", "value": "Non-toxic"}, {"measurement": "Activity", "setting": "A549 [7]", "value": 9.06, "unit": "%"}, {"measurement": "Activity", "setting": "[8]", "value": "Non-toxic"}, {"measurement": "Activity", "setting": "NCI-H1975 [9]", "value": 4.81, "unit": "%"}, {"measurement": "Activity", "setting": "NCI-H1975 [10]", "value": 4.06, "unit": "%"}, {"measurement": "Activity", "setting": "NCI-H1975 [11]", "value": 2.01, "unit": "%"}, {"measurement": "pKd", "setting": "Quadruplex DNA", "value": 7.13}, {"measurement": "Activity", "setting": "A549 [12]", "value": 5.09, "unit": "%"}]}]}
